From PubChem BioAssay (NCI)
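Results reflect a 48-hour exposure of cells in 96-well plates to compound at five concentrations. Here, GI50 denotes the concentration required for 50% inhibition of growth. Definition used: TGI = concentration required for complete inhibition of growth.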

Assays:
Assay in all cases: DTP human tumour cell line panel, 48 h
[1] = tested on: UACC-62 melanoma
[2] = tested on: HL-60(TB) leukemia
[3] = tested on: MDA-MB-435
[4] = tested on: CAKI-1 renal
[5] = tested on: SK-MEL-28 melanoma
[6] = tested on: SF-268 CNS
[7] = tested on: HS 578T breast
[8] = tested on: U251 CNS
[9] = tested on: SW-620 colon
[10] = tested on: NCI/ADR-RES ovarian
[11] = tested on: OVCAR-5 ovarian
[12] = tested on: MOLT-4 leukemia
[13] = tested on: NCI-H522 lung
[14] = tested on: UO-31 renal
[15] = tested on: NCI-H23 lung
[16] = tested on: 786-0 renal
[17] = tested on: A498 renal
[18] = tested on: HT29 colon
[19] = tested on: HCT-116 colon
[20] = tested on: HOP-92 NSCLC
[21] = tested on: HCT-15 colon
[22] = tested on: TK-10 renal
[23] = tested on: K-562 leukemia
[24] = tested on: DU-145 prostate
[25] = tested on: IGROV1 ovarian
[26] = tested on: SK-OV-3 ovarian
[27] = tested on: KM12 colon
[28] = tested on: NCI-H226 lung
[29] = tested on: MDA-MB-231 breast
[30] = tested on: SK-MEL-2 melanoma
[31] = tested on: SN12C renal
[32] = tested on: SR leukemia
[33] = tested on: SNB-75 CNS
[34] = tested on: LOX IMVI melanoma
[35] = tested on: COLO 205 colon
[36] = tested on: EKVX NSCLC
[37] = tested on: NCI-H460 lung
[38] = tested on: MALME-3M melanoma
[39] = tested on: SF-539 CNS
[40] = tested on: M14 melanoma
[41] = tested on: OVCAR-3 ovarian
[42] = tested on: OVCAR-4 ovarian
[43] = tested on: BT-549 breast
[44] = tested on: RPMI-8226 leukemia
[45] = tested on: T-47D breast
[46] = tested on: UACC-257 melanoma
[47] = tested on: OVCAR-8 ovarian
[48] = tested on: ACHN renal
[49] = tested on: CCRF-CEM leukemia
[50] = tested on: A549 NSCLC
[51] = tested on: HCC-2998 colon
[52] = tested on: SNB-19 CNS
[53] = tested on: MCF7 breast
[54] = tested on: SK-MEL-5 melanoma

## COc1cc2c(cc1OCCCCn1c(-c3cccs3)nc3ccccc31)N=C[C@@H]1CCCN1C2=O
[1]
  GI50: 1570 nM
  TGI: 3080 nM
[2]
  GI50: 5180 nM
  TGI: 53400 nM
[3]
  GI50: 1390 nM
  TGI: 3750 nM
[4]
  GI50: 949 nM
  TGI: 6710 nM
[5]
  GI50: 1530 nM
  TGI: 3270 nM
[6]
  GI50: 1800 nM
  TGI: 5480 nM
[7]
  GI50: 1700 nM
  TGI: 6430 nM
[8]
  GI50: 1770 nM
  TGI: 10100 nM
[9]
  GI50: 1840 nM
  TGI: 10300 nM
[10]
  GI50: 3240 nM
  TGI: 13900 nM
[11]
  GI50: 3270 nM
  TGI: 9130 nM
[12]
  GI50: 3790 nM
  TGI: > 100000 nM
[13]
  GI50: 1040 nM
  TGI: 3140 nM
[14]
  GI50: 1230 nM
  TGI: 5340 nM
[15]
  GI50: 2050 nM
  TGI: 4400 nM
[16]
  GI50: 1710 nM
  TGI: 5900 nM
[17]
  GI50: 1680 nM
  TGI: 4760 nM
[18]
  GI50: 1970 nM
  TGI: 14600 nM
[19]
  GI50: 1750 nM
[20]
  GI50: 1330 nM
  TGI: 5460 nM
[21]
  GI50: 3190 nM
  TGI: 10500 nM
[22]
  GI50: 2090 nM
  TGI: 6740 nM
[23]
  GI50: 15500 nM
  TGI: > 100000 nM
[24]
  GI50: 1320 nM
  TGI: 6740 nM
[25]
  GI50: 754 nM
  TGI: 2860 nM
[26]
  GI50: 3320 nM
  TGI: 9190 nM
[27]
  GI50: 1920 nM
  TGI: 5380 nM
[28]
  GI50: 2130 nM
  TGI: 6510 nM
[29]
  GI50: 1390 nM
  TGI: 5220 nM
[30]
  GI50: 1470 nM
  TGI: 4680 nM
[31]
  GI50: 2500 nM
  TGI: 8650 nM
[32]
  GI50: 450 nM
  TGI: > 100000 nM
[33]
  GI50: 1220 nM
  TGI: 2540 nM
[34]
  GI50: 789 nM
  TGI: 3930 nM
[35]
  GI50: 1070 nM
  TGI: 2580 nM
[36]
  GI50: 3360 nM
  TGI: 11100 nM
[37]
  GI50: 1550 nM
  TGI: 4380 nM
[38]
  GI50: 1740 nM
  TGI: 3270 nM
[39]
  GI50: 1720 nM
  TGI: 3660 nM
[40]
  GI50: 1350 nM
  TGI: 2800 nM
[41]
  GI50: 1720 nM
  TGI: 4290 nM
[42]
  GI50: 1610 nM
  TGI: 4670 nM
[43]
  GI50: 417 nM
  TGI: 1200 nM
[44]
  GI50: 314 nM
  TGI: 1620 nM
[45]
  GI50: 503 nM
  TGI: 3650 nM
[46]
  GI50: 2540 nM
  TGI: 5900 nM
[47]
  GI50: 2580 nM
  TGI: > 100000 nM
[48]
  GI50: 2810 nM
  TGI: 7730 nM
[49]
  GI50: 247 nM
  TGI: 1370 nM
[50]
  GI50: 3220 nM
  TGI: > 100000 nM
[51]
  GI50: 2080 nM
  TGI: 4500 nM
[52]
  GI50: 1530 nM
  TGI: 4390 nM
[53]
  GI50: 660 nM
  TGI: 12500 nM
[54]
  GI50: 1090 nM
  TGI: 2300 nM
